Patent publication US20190069576A1, “Solid Form Nutrient Compositions” (Railsplitter Feed Technology, Inc., priority 2016, published 2019)

System: infant pigs
Test: Hemoglobin measurement of pigs treated with granular materials or iron dextran injections
Format: in vivo, pig
Experimental: In Example 6, four litters of pigs were provided granular product (sample numbers 272 and 280). These litters were offered these granular products ad litum from birth to 21 days of birth. Two litters were not offered granular material, but were instead injected with iron dextran on day 3 after birth with 1 cc of 200 mg of iron dextran. Two other litters, also not offered granular material, were injected twice, once on day 3, and once on day 10 after birth. Each injection was a 1 cc injection of 200 mg of iron dextran.
The National Research Council in the Nutrient Requirement of Swine publication recommends that levels of iron dextran providing more than 200 mg per pig in one injection be avoided. Many producers provide a second injection to minimize the deficiency which doubles the cost of preventing anemia in young pigs, and increases the probability of spreading pathogens with needles.
Hemoglobin analysis is an excellent way to quantitate the adequacy of iron for the pig but the treatment differences are obvious by just viewing the litters.
A striking difference between healthy hemoglobin adequate pigs and anemic pigs is the color of the skin. This is most obvious in white pigs, and most pigs in US have some white color in their breed lineage. Pigs with hemoglobin values above 10 gm per 100 ml. have extremely bright, pink skin, while anemic pigs have very pale almost white color of the skin.

[1] = 1 injection, day 3, 1 cc of 200 mg, first litter (12 pigs)
[2] = 1 injection, second litter (10 pigs)
[3] = 2 injections, day 3 and day 10, each 1 cc of 200 mg, first litter (7 pigs)
[4] = 2 injections, second litter (11 pigs)

iron dextran
Pigs <10 gm % (hemoglobin) [1]: 10
Pigs >10 gm % (hemoglobin) [1]: 2
Pigs <10 gm % (hemoglobin) [2]: 4
Pigs >10 gm % (hemoglobin) [2]: 6
% with adequate Hemoglobin (1 injection, total of 22 pigs): 36%
Pigs <10 gm % (hemoglobin) (1 injection, total of 22 pigs): 14
Pigs >10 gm % (hemoglobin) (1 injection, total of 22 pigs): 8
Pigs <10 gm % (hemoglobin) [3]: 2
Pigs >10 gm % (hemoglobin) [3]: 5
Pigs <10 gm % (hemoglobin) [4]: 2
Pigs >10 gm % (hemoglobin) [4]: 9
% with adequate Hemoglobin (2 injections, total of 18 pigs): 77%
Pigs <10 gm % (hemoglobin) (2 injections, total of 18 pigs): 4
Pigs >10 gm % (hemoglobin) (2 injections, total of 18 pigs): 14
